Reference: US11912693B2, “Compounds for modulating S1P1 activity and methods of using the same” (TREVENA, INC., priority 2017, dated 2024)

Tests used:
[1] = biological target: T1, human sphingosine-1-phosphate receptor 1 (S1P1) (Homo sapiens (Human), UniProt P21453); experiment: Inhibition of cAMP production (HTRF cAMP HiRange), S1P1 CHO-K1 cells; format: cell-based; conditions: for Emax: CHO-K1, efficacy (SPAN) normalized to fingolimod, read-out: hS1P1 cAMP SPAN; for hS1P1 cAMP pEC50: inhibition of cAMP production, S1P1 CHO-K1 cells
Outline: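 CHO-K1 cells stably co-expressing human S1P1 (C-terminal Prolink tag) and EA-β-arrestin2 were grown in AssayComplete Media 6 at 37° C. and 5% CO2, plated, and incubated overnight. Agonist-driven inhibition of intracellular cAMP was read by TR-FRET with the HTRF cAMP HiRange kit on a PheraStar reader. Potency is pEC50, and efficacy (SPAN) is normalized to fingolimod.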
Target sequence in this assay (P21453 whole entry, looked up): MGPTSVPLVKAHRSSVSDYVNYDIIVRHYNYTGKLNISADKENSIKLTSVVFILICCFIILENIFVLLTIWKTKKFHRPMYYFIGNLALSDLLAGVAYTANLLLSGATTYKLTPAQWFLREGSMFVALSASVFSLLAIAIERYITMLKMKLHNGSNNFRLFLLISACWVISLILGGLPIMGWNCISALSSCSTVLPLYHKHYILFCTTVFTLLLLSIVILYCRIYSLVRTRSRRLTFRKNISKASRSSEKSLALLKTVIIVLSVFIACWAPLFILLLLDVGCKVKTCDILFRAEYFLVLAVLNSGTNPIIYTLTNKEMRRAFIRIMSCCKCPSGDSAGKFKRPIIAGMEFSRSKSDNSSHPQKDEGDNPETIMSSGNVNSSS

[2] = biological target: T1, human sphingosine-1-phosphate receptor 1 (S1P1); experiment: β-Arrestin2 recruitment assay (PathHunter), S1P1 CHO-K1 cells; format: cell-based; conditions: for Emax: CHO-K1, efficacy (SPAN) normalized to fingolimod, read-out: hS1P1 B-arrestin2 SPAN; for hS1P1 B-arrestin2 pEC50: β-arrestin2 recruitment, S1P1 CHO-K1 cells
Outline: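 Enzyme-fragment complementation read-out: agonist-driven β-arrestin2 binding to ProLink-tagged human S1P1 in stable CHO-K1 cells restores β-galactosidase, measured 1 h at room temperature after a 60 min 37° C. compound incubation. Potency as pEC50, efficacy relative to fingolimod (SPAN).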
Target sequence in this assay (P21453 whole entry, looked up): as above
Target sequence in this assay (P32121 whole entry partner, looked up): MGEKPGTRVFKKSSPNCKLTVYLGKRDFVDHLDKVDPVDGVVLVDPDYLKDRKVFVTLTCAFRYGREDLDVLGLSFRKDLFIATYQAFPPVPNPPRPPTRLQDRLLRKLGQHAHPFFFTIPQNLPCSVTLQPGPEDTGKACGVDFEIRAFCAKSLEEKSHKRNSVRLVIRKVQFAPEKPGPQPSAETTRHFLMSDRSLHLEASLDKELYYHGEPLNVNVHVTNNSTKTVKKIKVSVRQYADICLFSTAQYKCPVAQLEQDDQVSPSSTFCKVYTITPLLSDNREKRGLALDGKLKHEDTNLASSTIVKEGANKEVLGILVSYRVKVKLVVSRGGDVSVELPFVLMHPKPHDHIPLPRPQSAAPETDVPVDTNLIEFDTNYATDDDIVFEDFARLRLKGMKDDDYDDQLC

| Structure (SMILES) | Emax [1] [%] | hS1P1 cAMP pEC50 [1] | Emax [2] [%] | hS1P1 B-arrestin2 pEC50 [2] |
| --- | --- | --- | --- | --- |
| CC(C)n1ccc2cc(-c3nc(-c4ccccc4OC(F)(F)F)no3)ccc21 [Compound 321, 5-(1-isopropyl-1H-indol-5-yl)-3-(2-(trifluoromethoxy)phenyl)-1,2,4-oxadiazole] | > 75 | <6.5 | < 75 | >5 |
| CC(C)n1ccc2cc(-c3nc(-c4ccccc4Br)no3)ccc21 [Compound 322, 3-(2-bromophenyl)-5-(1-isopropyl-1H-indol-5-yl)-1,2,4-oxadiazole] | > 75 | >6.5 | > 75 | >5 |
| CC(C)n1ccc2cc(-c3nc(-c4ccccc4O)no3)ccc21 [Compound 323, 2-(5-(1-isopropyl-1H-indol-5-yl)-1,2,4-oxadiazol-3-yl)phenol] | > 75 | <6.5 | > 75 | <5 |
| CC(C)Oc1ccccc1-c1noc(-c2ccc3c(ccn3C(C)C)c2)n1 [Compound 324, 3-(2-isopropoxyphenyl)-5-(1-isopropyl-1H-indol-5-yl)-1,2,4-oxadiazole] | < 75 | <6.5 | < 75 | <5 |
| COc1cccc(OC)c1-c1noc(-c2ccc3c(ccn3C(C)C)c2)n1 [Compound 325, 3-(2,6-dimethoxyphenyl)-5-(1-isopropylindol-5-yl)-1,2,4-oxadiazole] | < 75 | <6.5 | < 75 | <5 |
| CC(C)n1ccc2cc(-c3nc(-c4cccc5c4OCO5)no3)ccc21 [Compound 326, 3-(benzo[d][1,3]dioxol-4-yl)-5-(1-isopropyl-1H-indol-5-yl)-1,2,4-oxadiazole] | > 75 | <6.5 | > 75 | >5 |
| CC(C)n1ccc2cc(-c3nc(-c4cccc5c4OCCC5)no3)ccc21 [Compound 327, 3-chroman-8-yl-5-(1-isopropylindol-5-yl)-1,2,4-oxadiazole] |  | <6.5 |  | >5 |
| COc1cccc(F)c1-c1noc(-c2ccc3c(ccn3C(C)C)c2)n1 [Compound 328, 3-(2-fluoro-6-methoxy-phenyl)-5-(1-isopropylindol-5-yl)-1,2,4-oxadiazole] |  | <6.5 |  | >5 |
| Cc1ccccc1-c1noc(-c2ccc3c(cnn3C(C)C)c2)n1 [Compound 329, 5-(1-isopropyl-1H-indazol-5-yl)-3-(o-tolyl)-1,2,4-oxadiazole] | > 75 | >6.5 | > 75 | >5 |
| CC(C)n1ncc2cc(-c3nc(-c4ccccc4Cl)no3)ccc21 [Compound 330, 3-(2-chlorophenyl)-5-(1-isopropyl-1H-indazol-5-yl)-1,2,4-oxadiazole] | > 75 | >6.5 | > 75 | >5 |
| CC(C)n1ncc2cc(-c3nc(-c4ccccc4OC(F)(F)F)no3)ccc21 [Compound 331, 5-(1-isopropyl-1H-indazol-5-yl)-3-(2-(trifluoromethoxy)phenyl)-1,2,4-oxadiazole] | > 75 | >6.5 | > 75 | >5 |
| CC(C)n1ncc2cc(-c3nc(-c4ccccc4Br)no3)ccc21 [Compound 332, 3-(2-bromophenyl)-5-(1-isopropyl-1H-indazol-5-yl)-1,2,4-oxadiazole] | > 75 | >6.5 | > 75 | >5 |
| CC(C)n1ncc2cc(-c3nc(-c4ccccc4O)no3)ccc21 [Compound 333, 2-(5-(1-isopropyl-1H-indazol-5-yl)-1,2,4-oxadiazol-3-yl)phenol] | > 75 | >6.5 | > 75 | <5 |
| CC(C)Oc1ccccc1-c1noc(-c2ccc3c(cnn3C(C)C)c2)n1 [Compound 334, 3-(2-isopropoxyphenyl)-5-(1-isopropyl-1H-indazol-5-yl)-1,2,4-oxadiazole] | > 75 | <6.5 | > 75 | <5 |
| COc1cccc(OC)c1-c1noc(-c2ccc3c(cnn3C(C)C)c2)n1 [Compound 335, 3-(2,6-dimethoxyphenyl)-5-(1-isopropylindazol-5-yl)-1,2,4-oxadiazole] | < 75 | <6.5 | < 75 | <5 |
| CC(C)n1ncc2cc(-c3nc(-c4cccc5c4OCO5)no3)ccc21 [Compound 336, 3-(benzo[d][1,3]dioxol-4-yl)-5-(1-isopropyl-1H-indazol-5-yl)-1,2,4-oxadiazole] | > 75 | >6.5 | < 75 | >5 |
| CC(C)n1ncc2cc(-c3nc(-c4cccc5c4OCCC5)no3)ccc21 [Compound 337, 3-chroman-8-yl-5-(1-isopropylindazol-5-yl)-1,2,4-oxadiazole] | > 75 | >6.5 | > 75 | >5 |
| COc1cccc(F)c1-c1noc(-c2ccc3c(cnn3C(C)C)c2)n1 [Compound 338, 3-(2-fluoro-6-methoxy-phenyl)-5-(1-isopropylindazol-5-yl)-1,2,4-oxadiazole] | > 75 | <6.5 | > 75 | <5 |
| COc1ccccc1-c1nnc(-c2ccc3[nH]oc(=O)c3c2)o1 [Compound 339, 5-[5-(2-methoxyphenyl)-1,3,4-oxadiazol-2-yl]-1,3-dihydro-2,1-benzoxazol-3-one] |  | <6.5 |  | <5 |
| COc1ccccc1-c1nnc(-c2ccc3c(c2)c(=O)on3C)o1 [Compound 340, 5-[5-(2-methoxyphenyl)-1,3,4-oxadiazol-2-yl]-1-methyl-1,3-dihydro-2,1-benzoxazol-3-one] |  | <6.5 |  | <5 |
| COc1ccccc1-c1nnc(-c2ccc3c(c2)CCC(=O)N3)o1 [Compound 341, 6-[5-(2-methoxyphenyl)-1,3,4-oxadiazol-2-yl]-1,2,3,4-tetrahydroquinolin-2-one] |  | <6.5 |  | <5 |
| COC(=O)NS(=O)(=O)n1c(=O)oc2cc(-c3nnc(-c4ccccc4OC)o3)ccc21 [Compound 342, methyl N-({6-[5-(2-methoxyphenyl)-1,3,4-oxadiazol-2-yl]-2-oxo-2,3-dihydro-1,3-benzoxazol-3-yl}sulfonyl)carbamate] | < 75 | <6.5 | < 75 | <5 |
| N#Cc1cc(-c2nc(-c3ccc4c(c3)CCC(=O)N4)no2)ccc1NCCF [Compound 343, 2-[(2-fluoroethyl)amino]-5-[3-(2-oxo-1,2,3,4-tetrahydroquinolin-6-yl)-1,2,4-oxadiazol-5-yl]benzonitrile] | > 75 | >6.5 | > 75 | >5 |
| N#Cc1cc(-c2nc(-c3ccc4c(c3)CCC(=O)N4)no2)ccc1NCC(F)F [Compound 344, 2-[(2,2-difluoroethyl)amino]-5-[3-(2-oxo-1,2,3,4-tetrahydroquinolin-6-yl)-1,2,4-oxadiazol-5-yl]benzonitrile] | > 75 | >6.5 | > 75 | >5 |
| N#Cc1cc(-c2nc(-c3ccc4c(c3)CCC(=O)N4)no2)ccc1N [Compound 345, 2-amino-5-[3-(2-oxo-1,2,3,4-tetrahydroquinolin-6-yl)-1,2,4-oxadiazol-5-yl]benzonitrile] | < 75 | <6.5 | < 75 | <5 |
| C=C(F)CNc1ccc(-c2nc(-c3ccc4c(c3)CCC(=O)N4)no2)cc1C#N [Compound 346, 2-[(2-fluoroprop-2-en-1-yl)amino]-5-[3-(2-oxo-1,2,3,4-tetrahydroquinolin-6-yl)-1,2,4-oxadiazol-5-yl]benzonitrile] | > 75 | >6.5 | > 75 | >5 |
| CC(F)(F)CNc1ccc(-c2nc(-c3ccc4c(c3)CCC(=O)N4)no2)cc1C#N [Compound 347, 2-[(2,2-difluoropropyl)amino]-5-[3-(2-oxo-1,2,3,4-tetrahydroquinolin-6-yl)-1,2,4-oxadiazol-5-yl]benzonitrile] | > 75 | >6.5 | > 75 | >5 |
| COc1ccccc1-c1nnc(-c2ccc3[nH]c(=O)oc3c2)o1 [Compound 349, 6-[5-(2-methoxyphenyl)-1,3,4-oxadiazol-2-yl]-2,3-dihydro-1,3-benzoxazol-2-one] | < 75 | >6.5 | < 75 | <5 |
| COc1ccccc1-c1nnc(-c2ccc3c(c2)oc(=O)n3C)o1 [Compound 350, 6-[5-(2-methoxyphenyl)-1,3,4-oxadiazol-2-yl]-3-methyl-2,3-dihydro-1,3-benzoxazol-2-one] | < 75 | <6.5 | < 75 | <5 |
